Assay results as given in patent US12358886B2, “Heterocyclic compounds for use in the treatment of cancer” (Artios Pharma Limited, priority 2019, dated 2025).
Read-outs that look alike come from different tables or passages of the source.

Molecular target: Polθ protein (amino acids 2-2590) (Homo sapiens, UniProt O75417)
Test: Polθ full length enzyme potency assay (PicoGreen)
Conditions: full length N-His, C-term FLAG tagged Polθ, PicoGreen fluorescence, 12 point concentration response

Polθ protein (amino acids 2-2590), sequence (O75417 2-2590): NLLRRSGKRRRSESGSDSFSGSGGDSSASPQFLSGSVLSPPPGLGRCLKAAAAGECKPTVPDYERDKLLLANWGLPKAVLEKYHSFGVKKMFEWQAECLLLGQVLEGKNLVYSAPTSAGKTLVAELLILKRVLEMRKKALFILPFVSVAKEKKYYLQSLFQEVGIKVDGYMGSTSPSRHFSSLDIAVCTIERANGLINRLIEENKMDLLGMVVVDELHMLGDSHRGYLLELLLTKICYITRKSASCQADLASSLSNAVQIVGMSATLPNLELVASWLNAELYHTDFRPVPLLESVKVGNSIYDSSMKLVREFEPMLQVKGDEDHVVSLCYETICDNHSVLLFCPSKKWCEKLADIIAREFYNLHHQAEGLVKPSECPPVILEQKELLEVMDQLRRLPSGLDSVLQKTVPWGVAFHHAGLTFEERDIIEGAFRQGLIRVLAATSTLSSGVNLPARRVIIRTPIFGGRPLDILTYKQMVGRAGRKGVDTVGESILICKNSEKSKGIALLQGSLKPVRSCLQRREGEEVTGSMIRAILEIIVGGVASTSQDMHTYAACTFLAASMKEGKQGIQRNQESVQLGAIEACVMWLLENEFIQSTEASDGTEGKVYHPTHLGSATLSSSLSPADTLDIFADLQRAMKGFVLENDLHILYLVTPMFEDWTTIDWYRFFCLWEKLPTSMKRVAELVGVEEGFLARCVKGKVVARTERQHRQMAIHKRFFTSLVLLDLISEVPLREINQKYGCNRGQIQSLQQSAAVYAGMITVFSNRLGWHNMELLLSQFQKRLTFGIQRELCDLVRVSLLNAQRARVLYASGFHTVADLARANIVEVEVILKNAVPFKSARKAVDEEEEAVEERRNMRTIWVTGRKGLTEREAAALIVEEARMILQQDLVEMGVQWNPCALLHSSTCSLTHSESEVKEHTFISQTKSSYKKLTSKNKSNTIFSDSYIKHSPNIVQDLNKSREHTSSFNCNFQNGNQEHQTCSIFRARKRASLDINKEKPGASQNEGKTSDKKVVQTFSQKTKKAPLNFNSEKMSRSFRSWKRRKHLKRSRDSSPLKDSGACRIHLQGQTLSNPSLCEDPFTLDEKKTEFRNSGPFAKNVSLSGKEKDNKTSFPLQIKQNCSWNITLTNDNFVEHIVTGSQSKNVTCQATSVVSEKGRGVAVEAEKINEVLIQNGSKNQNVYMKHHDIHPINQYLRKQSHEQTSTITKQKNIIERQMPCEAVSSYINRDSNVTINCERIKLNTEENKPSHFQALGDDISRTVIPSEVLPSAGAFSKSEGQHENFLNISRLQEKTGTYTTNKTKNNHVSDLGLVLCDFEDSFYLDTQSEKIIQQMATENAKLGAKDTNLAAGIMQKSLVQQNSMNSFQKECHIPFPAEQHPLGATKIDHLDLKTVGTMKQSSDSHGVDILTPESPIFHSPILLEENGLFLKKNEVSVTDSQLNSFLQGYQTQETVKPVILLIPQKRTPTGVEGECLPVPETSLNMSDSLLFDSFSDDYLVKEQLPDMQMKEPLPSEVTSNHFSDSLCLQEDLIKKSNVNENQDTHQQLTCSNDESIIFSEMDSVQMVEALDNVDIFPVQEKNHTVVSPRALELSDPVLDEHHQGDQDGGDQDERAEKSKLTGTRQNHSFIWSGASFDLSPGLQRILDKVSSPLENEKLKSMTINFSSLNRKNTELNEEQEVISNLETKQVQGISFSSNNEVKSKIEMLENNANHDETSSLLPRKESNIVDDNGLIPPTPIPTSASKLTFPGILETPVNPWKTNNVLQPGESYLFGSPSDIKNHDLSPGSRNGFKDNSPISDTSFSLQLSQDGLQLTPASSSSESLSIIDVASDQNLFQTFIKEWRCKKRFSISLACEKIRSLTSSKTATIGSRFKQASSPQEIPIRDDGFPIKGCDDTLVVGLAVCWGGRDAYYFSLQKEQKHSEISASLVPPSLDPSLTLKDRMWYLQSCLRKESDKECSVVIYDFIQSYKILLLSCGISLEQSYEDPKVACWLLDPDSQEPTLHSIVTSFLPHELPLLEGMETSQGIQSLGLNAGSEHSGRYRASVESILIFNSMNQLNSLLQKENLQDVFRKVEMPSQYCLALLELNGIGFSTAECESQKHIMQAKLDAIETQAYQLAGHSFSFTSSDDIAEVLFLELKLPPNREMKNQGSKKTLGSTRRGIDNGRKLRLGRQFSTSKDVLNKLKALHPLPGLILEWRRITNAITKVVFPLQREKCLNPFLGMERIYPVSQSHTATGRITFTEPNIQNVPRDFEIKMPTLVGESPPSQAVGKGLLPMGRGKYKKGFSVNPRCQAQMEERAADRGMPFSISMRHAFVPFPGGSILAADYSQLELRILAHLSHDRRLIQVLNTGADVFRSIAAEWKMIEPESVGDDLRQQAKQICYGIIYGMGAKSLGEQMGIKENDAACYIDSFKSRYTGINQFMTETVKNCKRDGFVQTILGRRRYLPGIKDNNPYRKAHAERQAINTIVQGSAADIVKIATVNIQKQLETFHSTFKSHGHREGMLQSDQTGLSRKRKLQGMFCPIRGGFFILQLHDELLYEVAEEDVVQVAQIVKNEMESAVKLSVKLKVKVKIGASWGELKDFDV

Row | SMILES | IC50 (Polθ IC50 (nM)) | IC50 (read-out: Polθ IC50)
1 | Cc1cccc(N(C)C(=O)[C@@H]2[C@H](O)CCN2c2nc(C)cc(C(F)(F)F)c2C#N)c1 [Example 24, (2S,3R)-1-(3-Cyano-6-methyl-4-(trifluoromethyl)pyridin-2-yl)-3-hydroxy-N-methyl-N-(m-tolyl)pyrrolidine-2-carboxamide] | 9 nM | –
2 | Cc1cc(C(F)(F)F)cc(N2C(=O)[C@@H](O)[C@@H](O)[C@H]2C(=O)N(C)c2ccc3ccn(C)c3n2)n1 [Example 167, (2S,3S,4S)-3,4-Dihydroxy-N-methyl-N-(1-methyl-1H-pyrrolo[2,3-b]pyridin-6-yl)-1-(6-methyl-4-(trifluoromethyl)pyridin-2-yl)-5-oxopyrrolidine-2-carboxamide] | 56 nM | –
3 | Cc1cc(C(F)(F)F)cc(N2C(=O)NC[C@H]2C(=O)N(C)c2ccc3occ(C)c3n2)n1 [Example 236, (S)—N-Methyl-3-(6-methyl-4-(trifluoromethyl)pyridin-2-yl)-N-(3-methylfuro[3,2-b]pyridin-5-yl)-2-oxoimidazolidine-4-carboxamide] | 14 nM | –
4 | Cc1cc(C(F)(F)F)c(C#N)c(N2CCC[C@H]2C(=O)N(C)c2ccc3ccn(C)c3n2)n1 [Example 243, (S)-1-(3-Cyano-6-methyl-4-(trifluoromethyl)pyridin-2-yl)-N-methyl-N-(1-methyl-1H-pyrrolo[2,3-b]pyridin-6-yl)pyrrolidine-2-carboxamide] | 39 nM | –
5 | Cc1cc(C(F)(F)F)cc(N2C(=O)N(CCN3CCC3CO)C[C@H]2C(=O)N(C)c2ccc(F)c(Cl)c2F)n1 (stereo partly drawn) [Example 203, (4S)-N-(3-Chloro-2,4-difluoro-phenyl)-1-(2-(2-(hydroxymethyl)-azetidin-1-yl)-ethyl)-N-methyl-3-(6-methyl-4-(trifluoromethyl)pyridin-2-yl)-2-oxoimidazolidine-4-carboxamide] | 10 nM | –
6 | COc1cc(N(C)C(=O)[C@@H]2COC(=O)N2c2cc(C(F)(F)F)cc(C)n2)ccc1Cl [Example 91, (S)-N-(4-Chloro-3-methoxyphenyl)-N-methyl-3-(6-methyl-4-(trifluoromethyl)pyridin-2-yl)-2-oxooxazolidine-4-carboxamide] | 81 nM | –
7 | Cc1cc(C(F)(F)F)cc(N2C(=O)[C@@H](O)[C@@H](O)[C@H]2C(=O)N(C)c2ccc3c(n2)N(C)CCO3)n1 [Example 169, (2S,3S,4S)-3,4-Dihydroxy-N-methyl-N-(4-methyl-3,4-dihydro-2H-pyrido[3,2-b][1,4]oxazin-6-yl)-1-(6-methyl-4-(trifluoromethyl)pyridin-2-yl)-5-oxopyrrolidine-2-carboxamide] | 106 nM | –
8 | CCN(C(=O)[C@@H]1C[C@H](N2CCO[C@H](CO)C2)CN1c1nc(C)cc(C(F)(F)F)c1C#N)c1ccc(F)c(Cl)c1 [Example 154, (2S,4S)-N-(3-Chloro-4-fluorophenyl)-1-(3-cyano-6-methyl-4-(trifluoromethyl)pyridin-2-yl)-N-ethyl-4-((S)-2-(hydroxymethyl)morpholino)pyrrolidine-2-carboxamide] | 15 nM | –
9 | Cc1cc(C(F)(F)F)cc(N2C(=O)OC[C@H]2C(=O)N(C)c2ccc(Br)cc2F)n1 [Example 94, (S)-N-(4-Bromo-2-fluorophenyl)-N-methyl-3-(6-methyl-4-(trifluoromethyl)pyridin-2-yl)-2-oxooxazolidine-4-carboxamide] | 12 nM | –
10 | CCN(C(=O)[C@@H]1C[C@H](N[C@@H]2CCOC[C@H]2O)CN1c1cc(C(F)(F)F)cc(C)n1)c1ccc(F)c(F)c1 [Example 131, (2S,4S)-N-(3,4-Difluorophenyl)-N-ethyl-4-(((3S,4R)-3-hydroxytetrahydro-2H-pyran-4-yl)amino)-1-(6-methyl-4-(trifluoromethyl)pyridin-2-yl)pyrrolidine-2-carboxamide] | 248 nM | –
11 | Cc1cc(C(F)(F)F)c(C#N)c(N2C[C@@H](O)C[C@H]2C(=O)N(C)c2ccc(F)c(CF)c2)n1 [Example 15, (2S,4S)-1-(3-Cyano-6-methyl-4-(trifluoromethyl)pyridin-2-yl)-N-(4-fluoro-3-(fluoromethyl)-phenyl)-4-hydroxy-N-methyl-pyrrolidine-2-carboxamide] | 57 nM | –
12 | CCN(C(=O)[C@H]1C[C@@H](N2CCNCC2)CN1c1nc(C)cc(C)c1C#N)c1cccc(C)c1 (stereo in doubt) [Example 50, (2R,4R)-1-(3-Cyano-4,6-dimethylpyridin-2-yl)-N-ethyl-4-(piperazin-1-yl)-N-(m-tolyl)-pyrrolidine-2-carboxamide] | 232 nM | –
13 | CCN(C(=O)[C@@H]1C[C@H](N)CN1c1nc(C)cc(C)c1C#N)c1cccc(C)c1 [Example 38, (2S,4S)-4-Amino-1-(3-cyano-4,6-dimethylpyridin-2-yl)-N-ethyl-N-(m-tolyl)pyrrolidine-2-carboxamide] | 273 nM | –

More lines, now with the values ahead:

Row | IC50 (Polθ IC50 (nM)) | IC50 (read-out: Polθ IC50) | SMILES
14 | 6 nM | – | Cc1cc(C(F)(F)F)cc(N2C(=O)N(CC(C)O)C[C@H]2C(=O)N(C)c2ccc(F)c(Cl)c2)n1 (stereo partly drawn) [Example 160, (4S)—N-(3-Chloro-4-fluorophenyl)-1-(2-hydroxypropyl)-N-methyl-3-(6-methyl-4-(trifluoromethyl)pyridin-2-yl)-2-oxoimidazolidine-4-carboxamide]
15 | 16 nM | – | Cc1cc(C(F)(F)F)cc(N2C(=O)N(CC3CNCCO3)C[C@H]2C(=O)N(C)c2ccc(F)c(Cl)c2F)n1 (stereo partly drawn) [Example 218, (4S)—N-(3-Chloro-2,4-difluorophenyl)-N-methyl-3-(6-methyl-4-(trifluoromethyl)pyridin-2-yl)-1-(morpholin-2-ylmethyl)-2-oxoimidazolidine-4-carboxamide]
16 | 27 nM | – | CCN(C(=O)[C@H]1C[C@@H](N(C)C)CN1c1nc(C)cc(C)c1C#N)c1cccc(C)c1 (stereo in doubt) [Example 39, (2R,4R)-1-(3-Cyano-4,6-dimethylpyridin-2-yl)-4-(dimethylamino)-N-ethyl-N-(m-tolyl)pyrrolidine-2-carboxamide]
17 | – | 20 nM | CCN(C(=O)[C@@H]1[C@H](O)[C@H](O)C(=O)N1c1cc(C(F)(F)F)cc(C)n1)c1ccc(F)c(Cl)c1 [Example 66, (2S,3S,4S)-N-(3-Chloro-4-fluoro-phenyl)-N-ethyl-3,4-dihydroxy-1-(6-methyl-4-(trifluoromethyl)pyridin-2-yl)-5-oxopyrrolidine-2-carboxamide]
18 | 274 nM | – | COc1cc(N(C)C(=O)[C@@H]2C[C@H](O)CN2c2nc(C)cc(C(F)(F)F)c2C#N)ccc1F [Example 16, (2S,4S)-1-(3-Cyano-6-methyl-4-(trifluoromethyl)pyridin-2-yl)-N-(4-fluoro-3-methoxyphenyl)-4-hydroxy-N-methylpyrrolidine-2-carboxamide]
19 | 78 nM | – | CCN(C(=O)[C@@H]1C[C@H](N2CCC(O)C2)CN1c1cc(C(F)(F)F)cc(C)n1)c1ccc(F)c(F)c1 (stereo partly drawn) [Example 129, (3S,5S)-N-(3,4-Difluorophenyl)-N-ethyl-3-hydroxy-1′-(6-methyl-4-(trifluoromethyl)pyridin-2-yl)-[1,3′-bipyrrolidine]-5′-carboxannide]
20 | 409 nM | – | CCN(C(=O)[C@@H]1C[C@H](N(C)[C@@H]2CN(C(=O)OC(C)(C)C)C[C@H]2O)CN1c1cc(C(F)(F)F)cc(C)n1)c1ccc(F)c(F)c1 (racemic) [Example 143, rac-tert-Butyl (3R,4R)-3-(((3S,5S)-5-((3,4-difluorophenyl)(ethyl)carbamoyl)-1-(6-methyl-4-(trifluoromethyl)pyridin-2-yl)pyrrolidin-3-yl)(methyl)amino)-4-hydroxypyrrolidine-1-carboxylate]
